Series [1] concerns CT26 (murine colon carcinoma) tumor cells. In words: In vivo anti-tumor activity of combinations of antibodies directed to immune checkpoint molecules and chimeric proteins (CT26 tumor model). The note with it: for tumor volume: relative to vehicle, until the 35th day, antibodies three doses of 100 μg, chimeric protein three doses of 300 μg. On the set-up: species or system BALB/C mice. As to the method: The in vivo ability of specific combinations of antibodies directed to immune checkpoint molecules and chimeric proteins to target and reduce tumor volume was determined.
BALB/C mice were inoculated with 500,000 CT26 (murine colon carcinoma) tumor cells. Eight days after inoculation, there was no significant difference between starting tumor volumes among the mice, i.e., volumes were approximately 100 mm^3. Specific combinations were included: anti-CTLA-4 (9D9); anti-PD-1 (RMP1-14); anti-OX40 (OX86); PD1-Fc-OX40L; CSF1R-Fc-CD40L (FIG. 3B); anti-CTLA-4 then anti-PD1; anti-CTLA-4 then anti-OX40; anti-CTLA-4 then PD1-Fc-OX40L; anti-CTLA-4 then CSF1R-Fc-CD40L (FIG. 3C); PD1-Fc-OX40L then anti-CTLA-4; and CSF1R-Fc-CD40L then anti-CTLA-4 (FIG. 3D); anti-CTLA-4 then CSF1R-Fc-CD40L; CSF1R-Fc-CD40L then anti-CTLA-4; and CSF1R-Fc-CD40L with anti-CTLA-4 (FIG. 3E and FIG. 3F); and anti-PD-1 then CSF1R-Fc-CD40L; CSF1R-Fc-CD40L then anti-PD-1; and CSF1R-Fc-CD40L with anti-PD-1 (FIG. 4A and FIG. 4B).
In the experiments shown in FIG. 3A to FIG. 3D, tumor sizes were assayed every other day until the 27th day after inoculation. Mice that rejected the tumor were re-challenged with a secondary tumor (300,000 CT26 tumor cells) on the opposing flank, and primary/secondary tumors continued to be measured. In the experiments shown in FIG. 3E to FIG. 4B, tumor sizes were assayed every other day until the 35th day after inoculation. Mice that rejected the tumor were re-challenged with a secondary tumor (300,000 CT26 tumor cells) on the opposing flank, and primary/secondary tumors continued to be measured. Antibodies were given as three doses of 100 μg, the chimeric protein was given as three doses of 300 μg, with antibodies administered before, after, and simultaneously with the chimeric protein (days 7, 9, & 11; or days 12, 14, & 16).

Series [2] relates to various cytokines (e.g., CCL4, IL-18, IL-23, and IL-10). In words: In vivo serum cytokine expression in mice (Luminex). The note with it: murine CSF1R-Fc-CD40L, relative to vehicle, FIG. 10. As to the method:
(§1) The ability of the CSF1R-Fc-CD40L chimeric protein to induce in vivo cytokine expression in mice and in a non-human primate (Cynomolgus Macaque) was determined.
(§2) Mice were administered a vehicle or the murine CSF1R-Fc-CD40L chimeric protein and Cynomolgus Macaques were administered a vehicle or the human CSF1R-Fc-CD40L chimeric protein and the relative amount of various cytokines (e.g., CCL4, IL-18, IL-23, and IL-10) were detected and quantified.

The test system is the same in series [3]. In words: In vivo serum cytokine expression in Cynomolgus Macaques (Luminex). Also noted: species or system Cynomolgus Macaque. The note with it: monkeys; human CSF1R-Fc-CD40L; relative to vehicle; FIG. 10. As to the method: as §1, §2
The subject of series [4] is CT26 (murine colon carcinoma) tumor cells. In words: In vivo anti-tumor activity of combinations of a STING agonist and chimeric proteins (CT26 tumor model). On the set-up: species or system BALB/C mice. To be noted: for effectiveness of combination by order of administration: chimeric protein provided after DMXAA relative to DMXAA following the chimeric protein. Here is the method:
The in vivo ability of specific combinations of a stimulator of interferon genes (STING) agonist and chimeric proteins to target and reduce tumor volume was determined.
BALB/C mice were inoculated with 500,000 CT26 (murine colon carcinoma) tumor cells. Eight days after inoculation, there was no significant difference between starting tumor volumes among the mice, i.e., volumes were approximately 100 mm^3. Specific combinations were included: DMXAA; anti-PD-1 (RMP1-14); anti-OX40 (OX86); PD1-Fc-OX40L; CSF1R-Fc-CD40L (FIG. 8A); DMXAA then anti-PD1; DMXAA then anti-OX40; DMXAA then PD1-Fc-OX40L; DMXAA then CSF1R-Fc-CD40L (FIG. 8B); PD1-Fc-OX40L then […]; and CSF1R-Fc-CD40L then DMXAA (FIG. 8C). Tumor sizes were assayed every other day until the 27th day after inoculation. Mice that rejected the tumor were re-challenged with a secondary tumor (300,000 CT26 tumor cells) on the opposing flank, and primary/secondary tumors continued to be measured.

Series [5] in a line: In vivo toxicity in mice. Here is the method: as §2
Series [6] can be described thus: In vivo toxicity in monkeys. Here is the method: as §2

For the molecule “CSF1R-Fc-CD40L: chimeric protein: extracellular region of CSF1R, linker comprising a hinge-CH2-CH3 Fc region, extracellular region of CD40L; murine and human versions used”, the “anti-tumor effects compared among treatment groups” value in series [1] (FIG. 3E (anti-CTLA-4 series)) and in series [1] (FIG. 4A (anti-PD-1 series)) was “Roughly comparable amounts of anti-tumor effects” throughout. Moreover, the survivors entry in series [1] (by 30 days after inoculation) is “no survivors”. In series [1] (chimeric protein administered after the anti-CTLA-4 antibody, FIG. 3C, 3D), the “improvement in tumor volume reduction by order of administration” value was “most significant improvement”. The tumor volume result in series [1] (FIG. 3E (anti-CTLA-4 series)) and in series [1] (FIG. 4A (anti-PD-1 series)) was “effective in reducing tumor volume” throughout. Also, the serum cytokine levels entry in series [2] and in series [3] was “greatly enhanced” throughout. In addition, the “effectiveness of combination by order of administration” value in series [4] is “more effective”. The in vivo toxicity entry in series [5] and in series [6] was “no in vivo toxicity was observed” each time.

Turning to `Cc1ccc2c(=O)c3cccc(CC(=O)O)c3oc2c1C` [DMXAA, 5,6-dimethylxanthenone-4-acetic acid, reference compound], the “anti-tumor activity as a monotherapy” value in series [4] (FIG. 8A) is reported as “effective anti-tumor agent”.

B1: PD1-Fc-OX40L: chimeric protein: extracellular domain of PD-1, linker comprising a hinge-CH2-CH3 Fc domain, extracellular domain of OX40L (protein)
chain: LDSPDRPWNPPTFSPALLVVTEGDNATFTCSFSNTSESFVLNWYRMSPSNQTDKLAAFPEDRSQPGQDCRFRVTQLPNGRDFHMSVVRARRNDSGTYLCGAISLAPKAQIKESLRAELRVTERRAEVPTAHPSPSPRPAGQFQSKYGPPCPPCPAPEFLGGPSVFLFPPKPKDQLMISRTPEVTCVVVDVSQEDPEVQFNWYVDGVEVHNAKTKPREEQFNSTYRVVSVLTVLHQDWLSGKEYKCKVSSKGLPSSIEKTISNATGQPREPQVYTLPPSQEEMTKNQVSLTCLVKGFYPSDIAVEWESNGQPENNYKTTPPVLDSDGSFFLYSRLTVDKSRWQEGNVFSCSVLHEALHNHYTQKSLSLSLGKIEGRMDQVSHRYPRIQSIKVQFTEYKKEKGFILTSQKEDEIMKVQNNSVIINCDGFYLISLKGYFSQEVNISLHYQKDEEPLFQLKKVRSVNSLMVASLTYKDKVYLNVTTDNTSLDDFHVNGGELILIHQNPGEFCVL
Turning to B1, the “effectiveness of combination by order of administration” value in series [4] is “more effective”.

The record behind these values is US20210324041A1, “COMBINATION THERAPIES” (Shattuck Labs, Inc., priority 2018, published 2021).
